In patent publication US5534416A, “Fluorescent viability assay using cyclic-substituted unsymmetrical cyanine dyes” (Molecular Probes, Inc., priority 1993, dated 1996):

Legend:
nucleic acids [1] = conditions: cited from earlier work
M. luteus = experiment: Fluorescence per cell, stained bacteria (microtiter plate reader); format: cell-based, Micrococcus luteus; conditions: optimal dye concentration, corrected for cell number
Protocol: (§1) 1. Measured in a fluorescence microtiter plate reader with extraction and
(§2) emission filters at 485+/-10 and 530+/-12, respectively. Fluorescence dat
(§3) are corrected for cell number; but are not corrected for cell volume or
(§4) 2. Optimal dye concentrations determined as in Example 3.
(§5) 3. Suspension concentrations as used for Example 3.
(§6) A culture of E. coli is washed by centrifugation and resuspended in water to its original volume. Using Corning 96-well microtiter plates with flat bottoms, 150 μL volumes of suspension are loaded per well. A single well of sterile water is the well background standard. Using a Dynatech MR600 microplate reader equipped with a 410 nm filter, absorbance is determined for the initial volumes of suspension. The suspension is diluted seven times by serial ten-fold dilutions in water, 150 μL of suspension per well, and the absorbance measured for each dilution. Following the absorbance measurements, each dilution loaded into wells is further diluted 1:10 and plated in duplicate on nutrient growth agar. The colonies are counted and expressed as colony forming units per milliliter (cfu/mL). Using the turbidity of the dilution in the microtiter plate, the suspension is diluted to a density of about 1×10^9 cfu/mL.
(§7) The bacteria suspension, adjusted to a known density as described above, is diluted seven times by serial ten-fold dilutions in water; 150 μL of suspension per well. Three-fold serial dilutions of dye are used (30-0.04 μM); 50 μL of dye at 4× final concentration. Using Corning 96-well microtiter flat-bottom plates, a matrix is set up whereby the cell concentration decreases across the plate and the dye concentration decreases down the plate, final volume per well is 200 μL. The top row and first column are reserved for the control, sterile water. The plate is incubated at 37° C. for 30 minutes, then read in a Millipore Cytofluor™ 2350 96-well fluorescence microplate reader at a fixed excitation of 485+/-10 nm and each of three emission wavelengths, 530+/-12, 620+/-20, or 645+/-20 nm. The results determine the best dye range (30-1 μM) and the best cell concentrations (concentrated through first three ten-fold dilutions) for optimal dye loading. […] Using the four dye dilutions and the four bacterial dilutions, many bacteria and dyes can be assayed quickly. The data collected allow the determination of optimal dye and cell concentration required for maximal fluorescence intensity per cell.

nucleic acids [2] = experiment: Excitation/emission maxima of dyes complexed with nucleic acids; format: physicochemical; parameters: key: wavelength in nm; conditions: Table 2; dye complexed with nucleic acids
Source text: Dye I is lightly colored and is virtually non-fluorescent when diluted in aqueous solution according to the method of the invention. Dye I is highly membrane-permeant and labels all cells, whether live or dead. When Dye I binds with intracellular nucleic acid polymers such as DNA and RNA, the resultant dye-nucleic acid complex becomes extremely fluorescent upon illumination. The quantum yield of the preferred Dye I/DNA complex is greater than 0.02, typically greater than 0.1, preferably greater than 0.2, and more preferably greater than 0.3. Typically, Dye I combines with intracellular nucleic acids to give a green or red fluorescence. When excited at a wavelength between about 300 nm and about 500 nm, the dyes complexed with nucleic acids have an emission maximum between about 500 and about 610 nm (see Table 2). Preferably, Dye I complexed with nucleic acids has an emission maximum of between about 500 nm and about 535 nm, resulting in a true green fluorescent signal in cells of the sample where Dye I is present alone.

E. coli = experiment: Fluorescence per cell, stained bacteria (microtiter plate reader); format: cell-based, Escherichia coli; conditions: for Fluorescence/Cell (ex 485/em 530): E. coli, optimal dye concentration, corrected for cell number; for Normalized Fluorescence/cell (ex 485 nm/em 530 nm), Escherichia coli: scaled to thiazole orange
Source text: as §1, §2, §3, §4, §5
(§8) Factors such as degree of fluorescence enhancement with nucleic acid binding, self quenching, molar extinction coefficient, membrane permeability, intracellular partitioning, nucleic acid binding affinity, and quantum yield contribute to the overall fluorescence of nucleic acid stains in cells. Enhanced cell fluorescence obtained with Dye I is related to unexpected properties other than quantum yield alone. Quantum yield is determined as described above (foot note to Table 2). Normalized quantum yield is determined to illustrate the fold-change in quantum yield of Dye I compared with thiazole orange, a related cell-permeant dye. The normalized fluorescence values represent the quantum yield of each dye divided by the quantum yield of thiazole orange. Fluorescence per cell is also scaled to thiazole orange values for both E. coli and S. aureus to allow direct comparison between relative (normalized) quantum yield and relative (normalized) fluorescence/cell.
as §6, §7

S. pyogenes = experiment: as above; format: cell-based, Streptococcus pyogenes; conditions: optimal dye concentration, corrected for cell number
Protocol: as §1, §2, §3, §4, §5, §6, §7

S. oranienburg = experiment: as above; format: cell-based, Salmonella oranienburg; conditions: optimal dye concentration, corrected for cell number
Protocol: as §1, §2, §3, §4, §5, §6, §7

B. cereus = experiment: as above; format: cell-based, Bacillus cereus; conditions: optimal dye concentration, corrected for cell number
Protocol: as §1, §2, §3, §4, §5, §6, §7

K. pneumonia = experiment: as above; format: cell-based, Klebsiella pneumonia; conditions: optimal dye concentration, corrected for cell number
Protocol: as §1, §2, §3, §4, §5, §6, §7

P. aeruginosa = experiment: as above; format: cell-based, Pseudomonas aeruginosa; conditions: optimal dye concentration, corrected for cell number
Protocol: as §1, §2, §3, §4, §5, §6, §7

S. sonnei = experiment: as above; format: cell-based, Shigella sonnei; conditions: optimal dye concentration, corrected for cell number
Protocol: as §1, §2, §3, §4, §5, §6, §7

S. aureus = experiment: as above; format: cell-based, Staphylococcus aureus; conditions: for Fluorescence/Cell (ex 485/em 530): S. aureus, optimal dye concentration, corrected for cell number; for Normalized Fluorescence/cell (ex 485 nm/em 530 nm), Staphylococcus aureus: scaled to thiazole orange
Source text: as §1, §2, §3, §4, §5, §8, §6, §7

DNA = experiment: Quantum yield of dye on DNA versus fluorescein; format: physicochemical; conditions: for Normalized QY: QY divided by QY of thiazole orange; for QY (DNA): Table 2, Tris buffered saline pH 10, fluorescein assumed 0.92; for QY: Table 7, on DNA, fluorescein reference
Source text: ^ Quantum yield (QY) of dye on DNA (standard solution in Tris buffere
saline adjusted to pH 10) in comparison with fluorescein, which is assume
to have a quantum yield of 0.92 under the test conditions.
as §8

calf thymus DNA = conditions: Table 5; bound to excess calf thymus DNA (50 bp/dye); cited from earlier work

Row | Compound | Fluorescence/Cell (ex 485/em 530) (M. luteus) | EM max (nucleic acids [2]) | EX max (nucleic acids [2]) | Fluorescence/Cell (ex 485/em 530) (E. coli) | Normalized Fluorescence/cell (ex 485 nm/em 530 nm), Escherichia coli (E. coli) | Fluorescence/Cell (ex 485/em 530) (S. pyogenes) | Fluorescence/Cell (ex 485/em 530) (S. oranienburg) | Fluorescence/Cell (ex 485/em 530) (B. cereus) | Fluorescence/Cell (ex 485/em 530) (K. pneumonia) | Fluorescence/Cell (ex 485/em 530) (P. aeruginosa) | Fluorescence/Cell (ex 485/em 530) (S. sonnei) | Fluorescence/Cell (ex 485/em 530) (S. aureus) | Normalized Fluorescence/cell (ex 485 nm/em 530 nm), Staphylococcus aureus (S. aureus) | Normalized QY (DNA) | QY (DNA) (DNA) | QY (DNA) | other results
1 | N=C(N)c1ccc(-c2cc3ccc(C(=N)N)cc3[nH]2)cc1 [DAPI] |  |  |  |  |  |  |  |  |  |  |  |  |  |  |  |  | excitability of nucleic acid complex (nucleic acids [1]; background): only excitable with UV light; spectral overlap of DNA-bound dye with cellular autofluorescence (nucleic acids [1]; background): overlap significantly with cellular autofluorescence
2 | COC1=CC(=Cc2sc3ccccc3[n+]2C)c2ccccc2N1c1ccccc1 [compound 628] | 149 | 506 | 488 | 28 | 14 | 0.04 | 19 | 613 | 20 | 14 | 16 | 34 | 10.6 | 2.2 | 0.40 | 0.40 | 
3 | CCN(CC)C1=CC(=Cc2sc3ccccc3[n+]2C)c2ccccc2N1c1ccccc1 [compound 619] | 149 | 517 | 488 | 26 | 13 | 0.06 | 18 | 827 | 12 | 16 | 13 | 47 | 14.7 | 3.4 | 0.62 | 0.62 | 
4 | CN1C(=Cc2cc[n+](C)c3ccccc23)Sc2ccccc21 [Thiazole Orange, reference compound] | 21 | 530 | 510 | 2 | 1 | < 0.01 | 1 | 51 | 3 | 2 | 1 | 3.2 | 1.0 | 1.0 | 0.18 | 0.18 | EM max (calf thymus DNA): 525 nm; EX max (calf thymus DNA): 509 nm
5 | CN(C)c1ccc2cc3ccc(N(C)C)cc3nc2c1 [acridine orange] |  |  |  |  |  |  |  |  |  |  |  |  |  |  |  |  | fluorescence enhancement upon binding to nucleic acids (nucleic acids [1]; background): about two-fold; background signal (nucleic acids [1]): high background signal
6 | CCCCC1=CC(=Cc2oc3ccccc3[n+]2C)c2ccccc2N1c1ccccc1 [compound 624] | 162 | 501 | 480 | 24 | 12 | 0.05 | 15 | 709 | 17 | 14 | 11 | 44 | 13.8 | 3.2 | 0.58 | 0.58 | 
7 | CCOc1ccc(-c2nc3ccc(-c4nc5ccc(N6CCN(C)CC6)cc5[nH]4)cc3[nH]2)cc1 [Hoechst 33342] |  |  |  |  |  |  |  |  |  |  |  |  |  |  |  |  | excitability of nucleic acid complex (nucleic acids [1]; background): only excitable with UV light; spectral overlap of DNA-bound dye with cellular autofluorescence (nucleic acids [1]; background): overlap significantly with cellular autofluorescence
8 | CC1=CC(=Cc2sc3ccccc3[n+]2C)c2ccccc2N1c1ccccc1 [compound 613] | 75 | 523 | 506 | 12 | 6 | 0.02 | 10 | 242 | 10 | 6 | 6 | 10 | 3.1 | 1.8 | 0.33 | 0.33 | 
9 | CCCCCCN1C=CC(=Cc2sc3ccccc3[n+]2C)c2ccccc21 [compound 634] | 58 | 530 | 510 | 4 | 2 | 0.03 | 5 | 154 | 4 | 3 | 4 | 15 | 4.7 | 1.0 | 0.18 | 0.18 | 
10 | C[n+]1c(C=C2C=C(Cl)N(c3ccccc3)c3ccccc32)sc2ccccc21 [compound 591] | 375 | 532 | 509 | 2 | 1 | < 0.01 | 2 | 58 | 2 | 1 | 1 | 3 | 0.9 | 0.5 | 0.09 | 0.09 | 
11 | C[n+]1c(C=C2C=CN(c3ccccc3)c3ccccc32)sc2ccccc21 [dye 63] | 33 | 531 | 514 | 6 | 3 | 0.01 | 4 | 93 | 5 | 3 | 3 | 5 | 1.6 | 1.3 | 0.24 | 0.24 | 
